Laboratory results taken from ChEMBL document CHEMBL3259623, “A mixed population of antagonist and agonist binding conformers in a single crystal explains partial agonism against vitamin D receptor: active vitamin D analogues with 22R-alkyl group” (J Med Chem, 2014).

Target: T1, Vitamin D3 receptor (Homo sapiens, UniProt P11473)
T1 sequence (P11473 whole entry): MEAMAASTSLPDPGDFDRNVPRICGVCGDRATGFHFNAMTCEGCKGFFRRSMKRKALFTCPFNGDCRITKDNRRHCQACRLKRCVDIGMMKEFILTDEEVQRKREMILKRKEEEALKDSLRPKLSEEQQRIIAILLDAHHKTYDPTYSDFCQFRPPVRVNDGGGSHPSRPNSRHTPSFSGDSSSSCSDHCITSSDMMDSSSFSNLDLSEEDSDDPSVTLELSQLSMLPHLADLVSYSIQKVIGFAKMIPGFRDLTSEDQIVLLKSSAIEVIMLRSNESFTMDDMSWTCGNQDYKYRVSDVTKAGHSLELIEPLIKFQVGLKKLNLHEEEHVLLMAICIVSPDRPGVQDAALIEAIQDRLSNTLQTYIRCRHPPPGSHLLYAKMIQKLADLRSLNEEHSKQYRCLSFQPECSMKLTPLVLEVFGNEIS
Description: Displacement of [3H]-1-alpha,25-dihydroxyvitamin D3 from N-terminal GST-tagged human recombinant VDR LBD expressed in Escherichia coli Rosetta2 (DE3) after 16 hrs

IC50 [nM] | Structure (SMILES)
0.12 | C=C1[C@H](O)CC(=C/C=C2\CCC[C@]3(C)[C@@H]([C@H](C)[C@H](CCCC)CC(C)(C)O)CC[C@@H]23)C[C@H]1O
1.79 | C=C1[C@H](O)CC(=C/C=C2\CCC[C@]3(C)[C@@H]([C@H](C)[C@H](CCCC)CC(O)(CC)CC)CC[C@@H]23)C[C@H]1O
0.89 | C=C1[C@H](O)CC(=C/C=C2\CCC[C@]3(C)[C@@H]([C@H](C)[C@H](CCCC)CCCO)CC[C@@H]23)C[C@H]1O
7.16 | C=C1[C@H](O)CC(=C/C=C2\CCC[C@]3(C)[C@@H]([C@H](C)[C@H](CC)CCCO)CC[C@@H]23)C[C@H]1O
1.55 | C=C1[C@H](O)CC(=C/C=C2\CCC[C@]3(C)[C@@H]([C@H](C)[C@H](CC)CC(O)(CC)CC)CC[C@@H]23)C[C@H]1O
2.87 | C=C1[C@H](O)CC(=C/C=C2\CCC[C@]3(C)[C@@H]([C@H](C)[C@H](CC)CCO)CC[C@@H]23)C[C@H]1O
0.26 | C=C1[C@H](O)CC(=C/C=C2\CCC[C@]3(C)[C@@H]([C@H](C)[C@@H](CCO)CCCC)CC[C@@H]23)C[C@H]1O
1.55 | C=C1[C@H](O)CC(=C/C=C2\CCC[C@]3(C)[C@@H]([C@H](C)[C@H](CC)CC(C)(C)O)CC[C@@H]23)C[C@H]1O
0.29 | C=C1[C@H](O)CC(=C/C=C2\CCC[C@]3(C)[C@@H]([C@H](C)[C@H](CCCC)CCC(C)(C)O)CC[C@@H]23)C[C@H]1O
2.39 | C=C1[C@H](O)CC(=C/C=C2\CCC[C@]3(C)[C@@H]([C@H](C)[C@H](CC)CCC(C)(C)O)CC[C@@H]23)C[C@H]1O
